Data: patent US20260258000A1, “THYMIDYLATE SYNTHASE INHIBITORS AND USES THEREOF” (University of Florida Research Foundation, Incorporated, priority 2021, published 2026)

Test system: H1048, CM, MIA PaCa-2, PANC-1 and Luc-PANC-1 cancer cell lines
Experiment: Viability assay screen in a panel of cancer cell lines
Assay type: cell-based
Conditions: 10 uM, 72 hours (FIG. 8)
Experimental: Viability assay performed in a panel of cancer cell lines including H1048 (small cell lung cancer), CM (pancreatic neuroendocrine tumor), MIA PaCa-2 and PANC-1 (pancreatic ductal adenocarcinoma), Luc-PANC-1 (pancreatic ductal adenocarcinoma cells expressing firefly luciferase). Initial viability assay screens were performed with single drug concentration (10 μM) or DMSO control (0.25%). […] The threshold of 10 μM was selected since compounds showing under 50% viability at 10 μM would indicate greater cytotoxicity than disclosed TS inhibitor 5-FU and present a promising lead candidate for further study.
To identify potential TS small molecule inhibitors, molecular docking was used to computationally screen compounds with the ability to bind TS. The details of the procedure are presented in the Methods section. The top ranked 26 compounds were acquired and designated 1-A through 26-Z, then used to determine the cytotoxicity at a 10 uM concentration in several cancer cell lines. […] This initial computational screen provided a predictive model that allowed a preliminary assessment for possible drug candidates. Subsequent experiments were pursued to validate biological activity and to define mechanisms for TS inhibition.

`CCc1nc(N)nc(N)c1-c1ccc(N(C)Cc2ccccc2)c([N+](=O)[O-])c1` [Compound 19-S] was tested, and the “cytotoxicity (viability)” value was “exhibited cytotoxicity in the 5 cell lines examined”.
